Test: Sapphire rocking cell anti-agglomerant test
Details: dose needed for a pass ranking
Description: A Sapphire Rocking Cell RCS is commercially available from PSL Systemtechnik in Germany. The Sapphire Rocking Cell is a laboratory instrument used to test the performance of low dosage hydrate inhibitors. The compounds were evaluated based on their ability to effectively minimize the size of gas hydrate agglomerate particles and disperse those particles into the hydrocarbon phase. Chemical performance was evaluated by determining the maximum treatable water cut (water to oil ratio) and the minimum chemical dosage to register a pass in the rocking cell test.
A rocking cell has two parts, a manifold and a cell body. The manifold is made up of stainless steel fittings that are welded together. It has three stems. An inlet stem is used to charge gas into the cell. An outlet stem is used to release the gas out of the cell. The third stem connects to a transducer, which measures the pressure inside of the cell. The cell body has three layers. The outer layer is a polycarbonate tube, which has a thickness of 0.7 cm. The middle layer is made of stainless steel metal and is connected to the manifold. The inner layer is a high-pressure sapphire tube, which has an outer diameter of 2.8 cm, inner diameter of 1.85 cm, and length of 5 cm. This sapphire tube can handle up to 3000 psi. A stainless steel ball which has a diameter of 1.6 cm is located inside the sapphire tube to induce turbulence and mix fluids during the rocking process.
Test fluids usually contain three components. For the anti-agglomerate test, 7.2 mL of warm crude oil was first injected into the cell. Next, a solution of 30,000 total dissolved solids (TDS) ([…]) of NaCl synthetic brine was injected into the cell to make a 40% water cut mixture. The anti-agglomerate test compound was the final component injected into the cell. The dosage of the test compound was based on the volume of aqueous phase. The initial temperature was set to 21° C. Observations were made every two to three hours, before the rocking was stopped, and also immediately after the restart.
Each cell was charged with Green Canyon gas and pressurized up to 2500 psi. All cells rocked for at least 1.5 to 2 hours until fluid was saturated and pressure stabilized. The rocking was ceased and the tank temperature was reduced to the set point of 4° C. over approximately 8 hours. The cells were then reboosted to a pressure of 2500 psi and remained static for 24 hours. Rocking was restarted for 2 hours with frequent observations to rank each cell with a ranked set of pass/fail criterion. Pressure and tank temperature data was recorded during this time.
The pass/fail criteria are based on the ability of the ball in the rocking cell to move within the sapphire tube. […] In contrast, the anti-agglomerant fails if the ball's movement is obstructed or completely stopped by the formation of gas hydrate agglomerates. The anti-agglomerate's performance is borderline when there are observable gas hydrate agglomerates and at least some of the agglomerates are stuck to the walls of the sapphire tube; when these agglomerates are present and the movement of the ball is not restricted, the anti-agglomerant ranking is a borderline pass.

Row | SMILES | Minimum Effective Dose (MED) (Oil B (25% w/c)) | Minimum Effective Dose (MED) (Oil C (35% w/c)) | Minimum Effective Dose (MED) (Oil D (25% w/c))
1 | CCCCN(CCCC)CCCN(CCC(=O)O)C(CC(=O)O)C(=O)OCCCCCCCCCCC(C)C (stereo not drawn) [Reaction 24] | 2.0 vol. % | 3.0 vol. % | 2.0 vol. %
2 | CCCCCCCCCCCCOC(=O)C(CC(=O)O)NCCCN1CCCCCC1 (stereo not drawn) [Reaction 26] | 2.0 vol. % | >3.0 vol. % | 2.0 vol. %
